Where two headings read alike, the source gives them in different places. No end group written: not given here.
Tests used:
[1] = system: E. coli (I364), P. aeruginosa (PAO1), S. aureus (F77); assay type: cell-based; settings: 18 h
Experimental: (§1) The minimum inhibition concentration (MIC) is used to determine the lowest concentration of antimicrobial agent needed to inhibit the visible growth of a bacteria strain after overnight incubation. All the bacteria strains were kindly provided by Dr Mark Webber of the Quadram Institute Bioscience (Norwich, UK; Escherichia coli (E. coli, […]), Pseudomonas aeruginosa (P. aeruginosa, PAO1) and Staphylococcus aureus (S. aureus, […]/NCTC8532)). Lysogen broth (LB broth) and agar were purchased from Sigma-Aldrich, Merck Life Science UK Limited, Dorset, UK. Fresh LB agar culture plates were prepared by pouring ≈10 mL of an autoclaved warm mixture of LB broth (2.5%) and bacteriological agar (1.5%) dissolved in dH2O. The agar plate was streaked and incubated overnight at 36 °C. A single bacterial colony was chosen and grown in 5 mL broth overnight under agitation at 36 °C. Subsequently, 50 μL of LB broth was added to wells 2-12 of a 96-well culture plate. AMPs were diluted to a concentration of 256 μg/mL, added to well 1, and diluted two-fold down to column 11. Column 12 was left empty, with no AMPs added. Then, 50 μL of the diluted overnight bacteria culture was added to the wells and incubated at 36 °C for 18 h to allow bacteria to grow. After incubation, the well plates were examined for bacterial growth and the lowest concentration of AMPs where clear liquid was observed was assumed to be the minimum inhibitory concentration. Three measurements for each peptide and against each type of bacteria were performed and the average values were obtained.

[2] = system: Escherichia coli (E. coli, I364); assay type: cell-based; settings: I364, 18 h
Experimental: as §1

[3] = system: Pseudomonas aeruginosa (P. aeruginosa, PAO1); assay type: cell-based; settings: PAO1, 18 h
Experimental: as §1

[4] = system: Staphylococcus aureus (S. aureus, F77/NCTC8532); assay type: cell-based; settings: NCTC8532, 18 h
Experimental: as §1

[5] = system: Staphylococcus aureus (S. aureus, F77/NCTC8532); settings: comparison value for LL-37; cited from earlier work
Excerpt: Table 3 MIC values for the designed KR12 analogues compared to the LL-37 human cathelicidin. | column: MIC Values (μM) / S. aureus ([…])

[6] = system: Pseudomonas aeruginosa (P. aeruginosa, PAO1); settings: comparison value for LL-37; cited from earlier work
Excerpt: Table 3 MIC values for the designed KR12 analogues compared to the LL-37 human cathelicidin. | column: MIC Values (μM) / P. aeruginosa (PAO1)

[7] = system: E. coli (I364), P. aeruginosa (PAO1), S. aureus (F77); settings: mean of the literature values for LL-37; cited from earlier work
Excerpt: Table 3 MIC values for the designed KR12 analogues compared to the LL-37 human cathelicidin. | column: MIC Values (μM) / Geometric Mean

[8] = system: Escherichia coli (E. coli, I364); settings: comparison value for LL-37; cited from earlier work
Excerpt: Table 3 MIC values for the designed KR12 analogues compared to the LL-37 human cathelicidin. | column: MIC Values (μM) / E. coli ([…])

Substance	MIC Values Geometric Mean [1]	MIC Values E. coli (I364) [2]	MIC Values P. aeruginosa (PAO1) [3]	MIC Values S. aureus (F77) [4]	MIC Values S. aureus (F77) [5]	MIC Values P. aeruginosa (PAO1) [6]	MIC Values Geometric Mean [7]	MIC Values E. coli (I364) [8]
KIRVQRIKDFLR [KR12/32]	13.33 µM	4 µM	4 µM	32 µM				
KRIVRIKFR [KR12-5911]	3.5 µM	0.5 µM	2 µM	8 µM				
LL-37: human cathelicidin, native peptide of KR12					4 µM	8 µM	6.67 µM	8 µM
KRIVQRIKDFLR [KR12, reference compound]	4.0 µM	2 µM	2 µM	8 µM				
KIRVRIKFR [KR12/32-5911]	3.33 µM	4 µM	4 µM	2 µM				

— article PMC7503509, “Polydopamine Linking Substrate for AMPs: Characterisation and Stability on Ti6Al4V” (Materials, 2020)
